Active and inactive are the calls of the source. The rule behind the calls is not given here.

In general, inhibition refers to how much of the control response was suppressed.

Experiment [1] deals with HCT-116. Put plainly: Induction of apoptosis in human HCT116 cells assessed as late apoptotic cells at 10 uM incubated for 24 hrs in presence of irradiation by annexin V FITC and propidium iodide based flow cytometry (reference value: 1.6 %). Format: functional.
Experiment [2] deals with DNA. Put plainly: Induction of Escherichia coli plasmid pBR322 DNA cleavage assessed as linear form at 50 uM irradiated with light and incubated for 1 hr by agarose gel electrophoresis. Format: nucleic-acid assay.
A further experiment has as its system Calf thymus DNA. Nature of the experiment: Competitive binding affinity to calf thymus DNA assessed as binding constant in presence of ethidium bromide incubated for 10 mins by UV-visible spectrophotometry. Format: nucleic-acid assay. Conditions: Bos taurus.
Experiment [3] deals with T1, DNA topoisomerase 1 (Homo sapiens) (UniProt P11387).
T1 sequence (whole entry): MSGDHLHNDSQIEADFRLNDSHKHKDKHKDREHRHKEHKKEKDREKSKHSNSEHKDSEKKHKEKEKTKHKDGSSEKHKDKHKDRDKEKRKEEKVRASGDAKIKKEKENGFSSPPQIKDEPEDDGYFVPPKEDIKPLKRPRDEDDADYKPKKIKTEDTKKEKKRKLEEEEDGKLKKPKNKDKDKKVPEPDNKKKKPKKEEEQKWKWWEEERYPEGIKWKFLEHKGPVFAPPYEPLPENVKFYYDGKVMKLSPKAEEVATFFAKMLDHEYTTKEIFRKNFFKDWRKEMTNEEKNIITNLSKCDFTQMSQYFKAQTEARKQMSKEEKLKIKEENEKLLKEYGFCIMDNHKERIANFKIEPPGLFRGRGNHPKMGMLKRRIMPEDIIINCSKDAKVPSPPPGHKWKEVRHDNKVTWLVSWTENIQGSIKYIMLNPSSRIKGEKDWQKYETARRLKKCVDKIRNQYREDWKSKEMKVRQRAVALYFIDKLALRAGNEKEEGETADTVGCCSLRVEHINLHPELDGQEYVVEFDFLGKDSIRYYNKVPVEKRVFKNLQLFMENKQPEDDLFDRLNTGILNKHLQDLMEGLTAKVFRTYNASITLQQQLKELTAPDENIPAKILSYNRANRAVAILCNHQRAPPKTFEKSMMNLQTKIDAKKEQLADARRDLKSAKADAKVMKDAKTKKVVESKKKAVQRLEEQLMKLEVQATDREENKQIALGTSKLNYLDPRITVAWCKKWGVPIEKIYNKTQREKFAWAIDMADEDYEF
Put plainly: Inhibition of recombinant human topoisomerase 1 assessed as linear DNA at 50 uM incubated for 1 hr by ethidium bromide staining based agarose gel electrophoresis method relative to control.

Experiment [4] concerns the target T2, DNA topoisomerase II (Homo sapiens) (UniProt P11388+Q02880). Nature of the experiment: Inhibition of recombinant human topoisomerase 2 at 12.5 uM incubated for 1 hr by ethidium bromide staining based agarose gel electrophoresis method relative to control. The experiment is classed as protein assay.
The test system of experiment [5] is DNA. Nature of the experiment: Induction of Escherichia coli plasmid pBR322 DNA cleavage assessed as decrease in supercoiled DNA at 50 uM in presence of light irradiation and incubated for 1 hr by agarose gel electrophoresis. Format: nucleic-acid assay.
Experiment [6] relates to HCT-116. Nature of the experiment: Induction of apoptosis in human HCT116 cells assessed as necrotic cells at 5 uM incubated for 24 hrs in presence of irradiation by annexin V FITC and propidium iodide based flow cytometry (reference value: 0.2 %). The experiment is classed as functional. (Flow cytometry measures light scatter and fluorescence of single cells or particles in a stream.)

The test system of experiment [7] is DNA. Put plainly: Induction of Escherichia coli plasmid pBR322 DNA cleavage assessed as increase in nicked circular DNA at 50 uM in presence of light irradiation and incubated for 1 hr by agarose gel electrophoresis. Format: nucleic-acid assay.
For experiment [8], the system named is HCT-116. Put plainly: Induction of apoptosis in human HCT116 cells assessed as viable cells at 5 uM incubated for 24 hrs in presence of irradiation by annexin V FITC and propidium iodide based flow cytometry (reference value: 94.8 %). Format: functional. Conditions: HCT-116, light or radiation study, read-out: Activity.
Experiment [9] concerns HCT-116. Put plainly: Induction of apoptosis in human HCT116 cells assessed as late apoptotic cells at 5 uM incubated for 24 hrs in presence of irradiation by annexin V FITC and propidium iodide based flow cytometry (reference value: 1.6 %). Format: functional.
Experiment [10] has as its system HCT-116. Nature of the experiment: Phototoxicity against human HCT116 cells assessed as cell viability at 10 uM incubated for 24 hrs under 17.5 mW/cm2 light irradiation by MTT assay relative to control. The experiment is classed as functional. Conditions: HCT-116, light or radiation study, read-out: Activity. For orientation: Tetrazolium assays rely on reduction of a dye to a coloured formazan, in cell work by metabolically active cells.

For experiment [11], the target named is T1, DNA topoisomerase 1 (Homo sapiens). Put plainly: Inhibition of recombinant human topoisomerase 1 at 12.50 uM incubated for 1 hr by ethidium bromide staining based agarose gel electrophoresis method relative to control.
For experiment [12], the system named is HCT-116. Put plainly: Cytotoxicity against human HCT116 cells assessed as cell viability at 10 uM incubated for 24 hrs in dark by MTT assay relative to control. Format: functional. The following applies: HCT-116, 24 h, read-out: Activity.
Experiment [13] relates to DNA. Nature of the experiment: Induction of Escherichia coli plasmid pBR322 DNA cleavage assessed as increase in nicked circular DNA in presence of light irradiation and incubated for 1 hr by agarose gel electrophoresis. The experiment is classed as nucleic-acid assay.
Experiment [14] addresses T2, DNA topoisomerase II (Homo sapiens). Nature of the experiment: Inhibition of recombinant human topoisomerase 2 assessed as supercoiled DNA at 12.5 uM incubated for 1 hr by ethidium bromide staining based agarose gel electrophoresis method relative to control. The experiment is classed as protein assay. On the set-up: scale not given: the % may be the effect or the level left.

For experiment [15], the target named is T1, DNA topoisomerase 1 (Homo sapiens). Put plainly: Inhibition of recombinant human topoisomerase 1 assessed as supercoiled pBR322 DNA at 12.5 uM incubated for 1 hr by ethidium bromide staining based agarose gel electrophoresis method relative to control. The arrangement: scale not given: the % may be the effect or the level left.
Experiment [16] deals with DNA. Nature of the experiment: Induction of Escherichia coli plasmid pBR322 DNA cleavage assessed as decrease in supercoiled DNA at 6.25 to 50 uM in presence of light irradiation and incubated for 1 hr by agarose gel electrophoresis relative to control. On the set-up: scale not given: the % may be the effect or the level left. Format: nucleic-acid assay.
Experiment [17] concerns the target T1, DNA topoisomerase 1 (Homo sapiens). Nature of the experiment: Inhibition of recombinant human topoisomerase 1 assessed as supercoiled pBR322 DNA at 50 uM incubated for 1 hr by ethidium bromide staining based agarose gel electrophoresis method relative to control. On the set-up: scale not given: the % may be the effect or the level left.
Experiment [18] deals with HCT-116. Nature of the experiment: Induction of apoptosis in human HCT116 cells assessed as viable cells at 50 uM incubated for 24 hrs in presence of irradiation by annexin V FITC and propidium iodide based flow cytometry (reference value: 94.8 %). The following applies: HCT-116, light or radiation study, read-out: Activity. The experiment is classed as functional.
Experiment [19] deals with DNA. Nature of the experiment: Induction of Escherichia coli plasmid pBR322 DNA cleavage assessed as increase in nicked circular DNA at 6.25 to 50 uM in presence of light irradiation and incubated for 1 hr by agarose gel electrophoresis. Format: nucleic-acid assay.
For experiment [20], the target named is T2, DNA topoisomerase II (Homo sapiens). Put plainly: Inhibition of recombinant human topoisomerase 2 assessed as supercoiled DNA at 25 uM incubated for 1 hr by ethidium bromide staining based agarose gel electrophoresis method relative to control. The arrangement: scale not given: the % may be the effect or the level left. The experiment is classed as protein assay.

In experiment [21] the test system is HCT-116. Put plainly: Induction of apoptosis in human HCT116 cells assessed as necrotic cells at 50 uM incubated for 24 hrs in presence of irradiation by annexin V FITC and propidium iodide based flow cytometry (reference value: 0.2 %). Format: functional.
The subject of experiment [22] is HCT-116. Put plainly: Induction of apoptosis in human HCT116 cells assessed as early apoptotic cells at 50 uM incubated for 24 hrs in presence of irradiation by annexin V FITC and propidium iodide based flow cytometry (reference value: 3.4 %). The experiment is classed as functional.
Experiment [23] concerns DNA. Nature of the experiment: Induction of Escherichia coli plasmid pBR322 DNA cleavage assessed as increase in nicked circular DNA at 3.125 uM in presence of light irradiation and incubated for 1 hr by agarose gel electrophoresis relative to control. Format: nucleic-acid assay.
In experiment [24] the target is T1, DNA topoisomerase 1 (Homo sapiens). Nature of the experiment: Inhibition of recombinant human topoisomerase 1 assessed as supercoiled pBR322 DNA at 25 uM incubated for 1 hr by ethidium bromide staining based agarose gel electrophoresis method relative to control. On the set-up: scale not given: the % may be the effect or the level left.

Consider `CC1=CC(/C=C/c2ccc(OCCCc3ccc[n+](C)c3)cc2)=[N+]2C1=C(c1ccc(OCCCc3ccc[n+](C)c3)cc1)c1c(C)cc(/C=C/c3ccc(OCCCc4ccc[n+](C)c4)cc3)n1[B-]2(F)F.[I-].[I-].[I-]`, for which the Activity with HCT-116 [1] is 32.5%; in the experiment on HCT-116 [6] it was 10.7%; in the experiment on HCT-116 [9] it was 30.5%; in the experiment on DNA [13], “Dose-dependent effect”. Also, the outcome with DNA [2], in the experiment on Calf thymus DNA, in the experiment on DNA [5] and in the experiment with DNA [7] was inactive. Further, the inhibition came out at 100% in experiment [3], 54.6% in experiment [4] and 88.5% in experiment [11]. For the same compound, the viability at 5 µM with HCT-116 [8] was found to be 23%. Moreover, the viability at 10 µM in the experiment with HCT-116 [10] was determined as 10%; in the experiment on HCT-116 [12] it was 88%.
As to `CC1=CC(/C=C/c2ccc(OCCCc3ccc[n+](C)c3)c(OCCCc3ccc[n+](C)c3)c2)=[N+]2C1=C(c1ccc(OCCCc3ccc[n+](C)c3)c(OCCCc3ccc[n+](C)c3)c1)c1c(C)cc(/C=C/c3ccc(OCCCc4ccc[n+](C)c4)c(OCCCc4ccc[n+](C)c4)c3)n1[B-]2(F)F.[I-].[I-].[I-].[I-].[I-].[I-]`, the Activity stood at 1% with HCT-116 [1]; 77.5% in experiment [14]; 64.2% in experiment [15]; 100% in the experiment with DNA [16]; 69.5% in experiment [17]; 81.8% in [20]. The Activity turned out to be 0.2% in the experiment with HCT-116 [21], 4.8% in the experiment with HCT-116 [22], 41.5% in the experiment with DNA [23] and 66% in experiment [24]. For the same compound, the inhibition was found to be 56.4% in experiment [4] and 89.1% in experiment [11]. The viability at 50 µM in the experiment with HCT-116 [18] was found to be 93.7%. In addition, the result in the experiment with DNA [19] was Active. The figures for the viability at 10 µM with HCT-116 [10] and with HCT-116 [12] were 99% and 96%, respectively.

For the origin of these results see ChEMBL document CHEMBL4406848, “Novel water soluble BODIPY compounds: Synthesis, photochemical, DNA interaction, topoisomerases inhibition and photodynamic activity properties” (Eur J Med Chem, 2019).
